US8518957B2, “Methanocarba adenosine derivatives, pharmaceutical compositions, and method of reducing intraocular pressure” (The United States of America, as represented by the …, priority 2009, dated 2013)

Tests used:
human A3AR [1] = target: T1, human A3AR (Homo sapiens, UniProt P0DMS8); assay: Cyclic AMP accumulation assay: inhibition of forskolin-stimulated cyclic AMP production in AR-transfected CHO cells; type: cell-based; settings: for % Inhibition of cAMP formation at hA3 AR: at 10 μM, in comparison to the maximal effect of full agonist NECA at 10 μM
T1 construct: expressed in transfected cells
T1 sequence (P0DMS8 1-318): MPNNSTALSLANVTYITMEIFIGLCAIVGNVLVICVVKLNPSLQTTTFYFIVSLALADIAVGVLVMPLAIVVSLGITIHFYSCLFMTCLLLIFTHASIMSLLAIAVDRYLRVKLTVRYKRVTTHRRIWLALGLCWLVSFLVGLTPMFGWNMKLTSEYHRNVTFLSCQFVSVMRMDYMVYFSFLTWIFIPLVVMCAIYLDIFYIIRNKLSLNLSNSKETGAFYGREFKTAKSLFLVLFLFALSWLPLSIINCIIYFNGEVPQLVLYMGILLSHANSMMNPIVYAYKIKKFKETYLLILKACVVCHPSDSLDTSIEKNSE
Description: Intracellular cyclic AMP levels were measured with a competitive protein binding method. […] CHO cells that expressed the recombinant human A3AR were harvested by trypsinization. After centrifugation and resuspended in medium, cells were planted in 24-well plates in 1.0 mL medium. After 24 h, the medium was removed and cells were washed three times with 1 mL DMEM, containing 50 mM HEPES, pH 7.4. […] After 45 min forskolin (10 μM) was added to the medium, and incubation was continued for an additional 15 min. […] The cell lysate was resuspended and stored at −20° C. For determination of cyclic AMP production, protein kinase A (PKA) was incubated with [^3H]cyclic AMP (2 nM) in K2HPO4/EDTA buffer (K2HPO4, 150 mM; EDTA, 10 mM), 20 μL of the cell lysate, and 30 μL 0.1 M HCl or 50 μL of cyclic AMP solution (0-16 pmol/200 μL for standard curve). Bound radioactivity was separated by rapid filtration through Whatman GF/C filters and washed once with cold buffer. Bound radioactivity was measured by liquid scintillation spectrometry.
Bound radioactivity was separated by rapid filtration through Whatman GF/C filters and washed the filters once with cold buffer. Bound radioactivity was measured with liquid scintillation spectrometry.

human A3AR [2] = target: T1, human A3AR; assay: Radioligand binding at human A3 AR ([125I]I-AB-MECA, membranes of CHO cells); settings: for Ki: [125I]38, CHO cells, read-out: Affinity (Ki, nM), A3
In short: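 Membranes came from CHO cells stably expressing hA3R, pretreated with adenosine deaminase (3 units/mL). Competition with agonist radioligand was run in 50 mM Tris-HCl pH 7.5, 10 mM MgCl2 for 60 min at 25 °C, followed by GF/B filtration and γ-counting. Ki values derived.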

| % Inhibition of cAMP formation at hA3 AR (human A3AR [1]) | Ki (human A3AR [2]) | % Inhibition of cAMP accumulation at the hA3AR (human A3AR [1]; concentration 10 μM, in comparison to full agonist NECA at 1 μM) | selectivity for the hA3AR in comparison to the hA1 and hA2A ARs (human A3AR [2]; radioligand binding inhibition curves, figure legends) | Compound |
| --- | --- | --- | --- | --- |
| 64.4 ± 12.4% | 47 ± 1.8 nM | – | – | CNC(=O)[C@@]12C[C@@H]1[C@@H](n1cnc3c(NCc4cccc(Cl)c4)nc(C#CCCCCc4cn(CCCCN)nn4)nc31)[C@H](O)[C@@H]2O [Compound 16, (1S,2R,3S,4R,5S)-6-(3-Chlorobenzylamino)-(2-(6-(1-(4-aminobutyl)-1H-1,2,3-triazol-4-yl)hex-1-ynyl)-9H-purin-9-yl)-2′,3′-dihydroxybicyclo[3.1.0]hexane-1′-carboxylic acid N-methylamide] |
| 83.4 ± 13.1% | 180 ± 23 nM | – | – | CNC(=O)[C@@]12C[C@@H]1[C@@H](n1cnc3c(NCc4cccc(Cl)c4)nc(C#CCCCCc4cn(-c5ccc(C(=O)O)cc5)nn4)nc31)[C@H](O)[C@@H]2O [Compound 13, (1S,2R,3S,4R,5S)-4′-(6-(3-Chlorobenzylamino)-2-(6-(1-(4-carboxyl-phenyl)-1H-1,2,3-triazol-4-yl)hex-1-ynyl)-9H-purin-9-yl)-2′,3′-dihydroxybicyclo[3.1.0]hexane-1′-carboxylic acid N-methylamide] |
| 59.7 ± 19.2% | 89.5 ± 12.6 nM | – | – | CNC(=O)[C@@]12C[C@@H]1[C@@H](n1cnc3c(NCc4cccc(Cl)c4)nc(C#CCCCCc4cn(CCCCNC(C)=O)nn4)nc31)[C@H](O)[C@@H]2O [Compound 17, (1S,2R,3S,4R,5S)-6-(3-Chlorobenzylamino)-(2-(6-(1-(4-acetamidobutyl)-1H-1,2,3-triazol-4-yl)hex-1-ynyl)-9H-purin-9-yl)-2′,3′-dihydroxybicyclo[3.1.0]hexane-1′-carboxylic acid N-methylamide] |
| 60.2 ± 17.0% | 29.4 ± 9.8 nM | 60.2 ± 17.0% | – | C#CCCCCC#Cc1nc(NCc2cccc(Cl)c2)c2ncn(C3C(O)C(O)C4(C(=O)NC)CC34)c2n1 (stereo not drawn) [Compound 9, (1′S, 2′R, 3′S, 4′S, 5′S)-4′-[6-(3-Chlorobenzylamino)-2-(1,7-octadiynyl)-9H-purin-9-yl]-2′,3′-dihydroxybicyclo[3.1.0]hexane-1′-carboxylic acid N-methylamide] |
| 44.3 ± 2.4% | 87.1 ± 13.1 nM | – | – | CNC(=O)[C@@]12C[C@@H]1[C@@H](n1cnc3c(NCc4cccc(Cl)c4)nc(C#CCCCCc4cn(-c5ccc(N)cc5)nn4)nc31)[C@H](O)[C@@H]2O [Compound 12, (1S,2R,3S,4R,5S)-4′-(6-(3-Chlorobenzylamino)-2-(6-(1-(4-amino-phenyl)-1H-1,2,3-triazol-4-yl)hex-1-ynyl)-9H-purin-9-yl)-2′,3′-dihydroxybicyclo[3.1.0]hexane-1′-carboxylic acid N-methylamide] |
| 55.6 ± 12.5% | 285 ± 54 nM | – | – | CNC(=O)[C@@]12C[C@@H]1[C@@H](n1cnc3c(NCc4cccc(Cl)c4)nc(C#CCCCCc4cn(CCCCCCNC(=O)CCCC[C@@H]5SC[C@@H]6NC(=O)N[C@@H]65)nn4)nc31)[C@H](O)[C@@H]2O [Compound 20, (1S,2R,3S,4R,5S)-6-(3-Chlorobenzylamino)-(2-(6-(1-(6-(5-(3aS,4S,6aR)-oxohexahydro-1H-thieno[3,4-d]imidazol-4-yl)pentanamido)hexyl-1H-1,2,3-triazol-4-yl)hex-1-ynyl)-9H-purin-9-yl)-2′,3′-dihydroxybicyclo[3.1.0]hexane-1′-carboxylic acid N-methylamide] |
| 116 ± 22% | 10.6 ± 3.8 nM | – | – | CNC(=O)[C@@]12C[C@@H]1[C@@H](n1cnc3c(NCc4cccc(Cl)c4)nc(C#CCCCCc4cn(-c5ccc(F)c([N+](=O)[O-])c5)nn4)nc31)[C@H](O)[C@@H]2O [Compound 11] |
| 41.8 ± 11.3% | 235 ± 43 nM | – | – | CNC(=O)[C@@]12C[C@@H]1[C@@H](n1cnc3c(NCc4cccc(Cl)c4)nc(C#CCCCCc4cn(CCCCCCC(=O)NCCCCCCNC(=O)CCCC[C@@H]5SC[C@@H]6NC(=O)N[C@@H]65)nn4)nc31)[C@H](O)[C@@H]2O [Compound 21] |
| 75.9 ± 16.5% | 102 ± 25 nM | – | – | CNC(=O)[C@@]12C[C@@H]1[C@@H](n1cnc3c(NCc4cccc(Cl)c4)nc(C#CCCCCc4cn(Cc5ccc(-n6sccc6=O)cc5)nn4)nc31)[C@H](O)[C@@H]2O [Compound 19, (1S,2R,3S,4R,5S)-6-(3-Chlorobenzylamino)-(2-(1-(4-3-oxoisothiazol-2(3H)-yl)benzyl-1H-1,2,3-triazol-4-yphex-1-ynyl)-9H-purin-9-yl)-2′,3′-dihydroxybicyclo[3.1.0]hexane-β-carboxylic acid N-methylamide] |
| 109 ± 12% | 9.6 ± 1.3 nM | – | – | CNC(=O)[C@@]12C[C@@H]1[C@@H](n1cnc3c(NCc4cccc(Cl)c4)nc(C#CCCCCc4cn(-c5ccc(C(=O)CBr)cc5)nn4)nc31)[C@H](O)[C@@H]2O [Compound 14, (1S,2R,3S,4R,5S)-6-(3-Chlorobenzylamino)-4-(2-(6-(4-(2-bromoacetyl)phenyl)-1H-1,2,3-triazol-4-yphex-1-ynyl)-9H-purin-9-yl)-2′,3′-dihydroxybicyclo[3.1.0]hexane-1′-carboxylic acid N-methylamide] |
| 93.6 ± 17.7% | 22.3 ± 1.6 nM | – | – | CNC(=O)[C@@]12C[C@@H]1[C@@H](n1cnc3c(NCc4cccc(Cl)c4)nc(C#CCCCCc4cn(CCNC(C)=O)nn4)nc31)[C@H](O)[C@@H]2O [Compound 15, (1S,2R,3S,4R,5S)-6-(3-Chlorobenzylamino)-(2-(6-(1-(4-acetamidoethyl)-1H-1,2,3-triazol-4-yl)hex-1-ynyl)-9H-purin-9-yl)-2′,3′-dihydroxybicyclo[3.1.0]hexane-1′-carboxylic acid N-methylamide] |
| 37.8 ± 14.6% | 416 ± 45 nM | – | – | CNC(=O)[C@@]12C[C@@H]1[C@@H](n1cnc3c(NCc4cccc(Cl)c4)nc(C#CCCCCc4cn(CCCCCCNC(=O)c5ccc(-c6c7ccc(=N)c(S(=O)(=O)O)c-7oc7c(S(=O)(=O)O)c(N)ccc67)c(C(=O)O)c5)nn4)nc31)[C@H](O)[C@@H]2O [Compound 23] |
| 27.8 ± 17.4% | 6.5 ± 0.5 nM | – | highly selective | CNC(=O)[C@@]12C[C@@H]1[C@@H](n1cnc3c(NCc4cccc(Cl)c4)nc(C#CCCCCc4cn(C56CC7CC(CC(C7)C5)C6)nn4)nc31)[C@H](O)[C@@H]2O [Compound 18, (1S,2R,3S,4R,5S)-6-(3-Chlorobenzylamino)-(2-(6-(1-(adamantyl)-1H-1,2,3-triazol-4-yl)hex-1-ynyl)-9H-purin-9-yl)-2′,3′-dihydroxybicyclo[3.1.0]hexane-1′-carboxylic acid N-methylamide] |

| Compound | % Inhibition of cAMP formation at hA3 AR (human A3AR [1]) | Ki (human A3AR [2]) | % Inhibition of cAMP accumulation at the hA3AR (human A3AR [1]; concentration 10 μM, in comparison to full agonist NECA at 1 μM) | selectivity for the hA3AR in comparison to the hA1 and hA2A ARs (human A3AR [2]; radioligand binding inhibition curves, figure legends) |
| --- | --- | --- | --- | --- |
| CNC(=O)[C@@]12C[C@@H]1[C@@H](n1cnc3c(NCc4cccc(Cl)c4)nc(-c4nnn(-c5ccc(N=C=S)cc5)c4CCCCc4cn(-c5ccc(N=C=S)cc5)nn4)nc31)[C@H](O)[C@@H]2O [Compound 25, (1S,2R,3S,4R,5S)-6-(3-Chlorobenzylamino)-(2-(1,6-bis(4-isothiocyante-phenyl)-1H-bis(1,2,3-triazol-4-yl)hex-1-ynyl)-9H-purin-9-yl)-2′,3′-dihydroxybicyclo[3.1.0]hexane-1′-carboxylic acid N-methylamide] | 83.6 ± 7.2% | 8.8 ± 1.3 nM | – | – |
| CNC(=O)[C@@]12C[C@@H]1[C@@H](n1cnc3c(NCc4cccc(Cl)c4)nc(C#CCCCCc4cn(-c5ccc(N=C=S)cc5)nn4)nc31)[C@H](O)[C@@H]2O [Compound 26, (1S,2R,3S,4R,5S)-6-(3-Chlorobenzylamino)-(2-(6-(1-(4-isothiocyante-phenyl)-1H-1,2,3-triazol-4-yl)hex-1-ynyl)-9H-purin-9-yl)-2′,3′-dihydroxybicyclo[3.1.0]hexane-1′-carboxylic acid N-methylamide] | 19.5 ± 14.5% | 37.5 ± 16 nM | – | – |
